Reference: EP4745117A1, “NOVEL INDENONE DERIVATIVE AND USE THEREOF” (Amyloid Solution Inc., priority 2023, dated 2025)

What was measured:
[1] = target: Tau-RD3 (Tau repeat domain 3) (Homo sapiens, UniProt P10636); assay: Tau disaggregation test by Thioflavin-T analysis; type: biochemical; conditions: for EC50: Tau-RD3 35 µM aggregated 24 hours, then compound 0 - 500 µM for 48 hours at 37 °C, concentration disaggregating 50 % of aggregates vs control, read-out: EC50 (µM) Tau; for disaggregation effect for tau protein aggregates: statement in words summarising the Thioflavin-T results
Procedure, shortened: (§1)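 Aβ1-42 (50 µM) or Tau-RD3 (35 µM) pre-aggregated 24 h at 37 °C, then incubated with compound (500 µM down to 0 µM, serial dilution) for 48 h at 37 °C. Read-out by Thioflavin-T (5 µM solution, glycine buffer pH 8.5) fluorescence, ex 450/em 485 nm. Values expressed relative to 72 h aggregated protein-only control (100%).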

Aβ1-42 = target: T1, Aβ1-42 (Homo sapiens, UniProt P05067); assay: Amyloid-beta disaggregation test by Thioflavin-T analysis; type: biochemical; conditions: for EC50: Aβ1-42 50 µM aggregated 24 hours, then compound 0 - 500 µM for 48 hours at 37 °C, concentration disaggregating 50 % of aggregates vs control, read-out: EC50 (µM) Aβ; for disaggregation effect for amyloid-beta protein aggregates: statement in words summarising the Thioflavin-T results
T1 construct: dissolving Aβ1-42 or Tau-RD3 (Tau repeat domain 3) monomers in DMSO
Procedure, shortened: as §1

[2] = tested on: amyloid-beta oligomers in HEK293 cells transfected with the APP E693Δ mutant plasmid; assay: Amyloid-beta oligomer change by dot blot (A11 antibody) in an amyloid-beta oligomer-overexpressing cell line; type: cell-based; conditions: compound 10 µM, 48 hours, dot blot of cell lysate, relative to control group (FIG. 1)
Description: To observe the change in intracellular amyloid-beta oligomers, a plasmid with the APP E693Δ (Osaka mutation) mutant, which is associated with early-onset Alzheimer's disease and is known to induce intracellular amyloid-beta oligomer formation, was obtained from GenScript. This plasmid was transfected into HEK293 cells using a liposome-mediated method (Lipofectamine) to prepare a cell line that overexpresses intracellular amyloid-beta oligomers.
HEK293 cells transfected with the APP E693Δ mutant plasmid were incubated for 48 hours in a 37 °C, 5 % CO2 incubator, and then treated with the compounds prepared in 1.1, which were diluted to a concentration of 10 µM in the cell culture medium. The untransfected control group was treated with 0.1 % DMSO, the same as the compound-treated group.
The compound-treated cell lines were again incubated for 48 hours in a 37 °C, 5 % CO2 incubator and then used in the experiment.
After incubating the control and compound-treated cells from Example 2.2, a dot blot was performed using the cell lysate. A 3.5 µg sample was spotted onto a nitrocellulose membrane and air-dried, and then the membrane to which the sample was adhered was blocked with 5 % skim milk. After incubating with the amyloid oligomer antibody A11 to allow binding, the membrane was washed 4 times with TBST, and the secondary antibody was bound. The image signal was measured using a chemiluminescent substrate.
It was confirmed that the amount of amyloid-beta oligomers was reduced by each compound treatment compared to the control group.

T1 sequence (P05067 672-713 limits assumed): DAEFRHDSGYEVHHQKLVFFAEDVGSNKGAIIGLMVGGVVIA
Sequence of Tau-RD3 (Tau repeat domain 3) (P10636 623-653 limits assumed): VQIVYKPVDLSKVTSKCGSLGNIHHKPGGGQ

CN1CCN(c2ccc3c(c2)C(=O)C(c2ccccc2)=C3c2ccccc2)CC1 [Compound 13, 6-(4-methylpiperazin-1-yl)-2,3-diphenyl-1H-inden-1-one]
EC50 [1]: < 20 µM
disaggregation effect for tau protein aggregates [1]: remarkably excellent disaggregation effect
EC50 (Aβ1-42): < 20 µM
disaggregation effect for amyloid-beta protein aggregates (Aβ1-42): remarkably excellent disaggregation effect
amyloid-beta oligomer reduction effect [2]: reduction effect

Cc1ncsc1C1=C(c2cnn(C3CCN(C)CC3)c2)C(=O)c2cc(OCCCc3ccccc3)ccc21 [Compound 30, 2-(1-(1-methylpiperidin-4-yl)-1H-pyrazol-4-yl)-3-(4-methylthiazol-5-yl)-6-(3-phenylpropoxy)-1H-inden-1-one]
EC50 [1]: < 20 µM
EC50 (Aβ1-42): < 20 µM
amyloid-beta oligomer reduction effect [2]: reduction effect

Cc1ncsc1C1=C(c2cccnc2)C(=O)c2cc(NC3CC3)ccc21 [Compound 63, 6-(cyclopropylamino)-3-(4-methylthiazol-5-yl)-2-(pyridin-3-yl)-1H-inden-1-one]
EC50 [1]: < 20 µM
disaggregation effect for tau protein aggregates [1]: remarkably excellent disaggregation effect
EC50 (Aβ1-42): < 20 µM
disaggregation effect for amyloid-beta protein aggregates (Aβ1-42): remarkably excellent disaggregation effect
amyloid-beta oligomer reduction effect [2]: reduction effect

Cc1ncsc1C1=C(c2cccnc2)C(=O)c2cc(N(C)CCCc3ccccc3)ccc21 [Compound 65, 6-(methyl(3-phenylpropyl)amino)-3-(4-methylthiazol-5-yl)-2-(pyridin-3-yl)-1H-inden-1-one]
EC50 [1]: < 20 µM
disaggregation effect for tau protein aggregates [1]: remarkably excellent disaggregation effect
disaggregation effect for amyloid-beta protein aggregates (Aβ1-42): remarkably excellent disaggregation effect
amyloid-beta oligomer reduction effect [2]: reduction effect

O=C1C(c2ccccc2)=C(c2ccccc2)c2ccc(N3CCN(CCO)CC3)cc21 [Compound 70, 6-(4-(2-hydroxyethyl)piperazin-1-yl)-2,3-diphenyl-1H-inden-1-one]
EC50 [1]: < 20 µM
disaggregation effect for tau protein aggregates [1]: remarkably excellent disaggregation effect
EC50 (Aβ1-42): < 20 µM
disaggregation effect for amyloid-beta protein aggregates (Aβ1-42): remarkably excellent disaggregation effect
amyloid-beta oligomer reduction effect [2]: reduction effect

Cc1cccc(C)c1C1=C(c2ccccc2)C(=O)c2cc(N3CCN(C)CC3)ccc21 [Compound 72, 3-(2,6-dimethylphenyl)-6-(4-methylpiperazin-1-yl)-2-phenyl-1H-inden-1-one]
EC50 [1]: < 20 µM
disaggregation effect for tau protein aggregates [1]: remarkably excellent disaggregation effect
EC50 (Aβ1-42): < 20 µM
disaggregation effect for amyloid-beta protein aggregates (Aβ1-42): remarkably excellent disaggregation effect
amyloid-beta oligomer reduction effect [2]: reduction effect

Cc1ncsc1C1=C(c2ccc(N3CCN(C)CC3)cc2)C(=O)c2cc(N3CCN(CCO)CC3)ccc21 [Compound 74, 6-(4-(2-hydroxyethyl)piperazin-1-yl)-2-(4-(4-methylpiperazin-1-yl)phenyl)-3-(4-methylthiazol-5-yl)-1H-inden-1-one]
EC50 [1]: < 20 µM
EC50 (Aβ1-42): < 20 µM
amyloid-beta oligomer reduction effect [2]: reduction effect

Cc1ncsc1C1=C(c2ccc(N3CCN(C)CC3)cc2)C(=O)c2cc(Cl)ccc21 [Compound 74-7, 6-chloro-2-(4-(4-methylpiperazin-1-yl)phenyl)-3-(4-methylthiazol-5-yl)-1H-inden-1-one]
EC50 [1]: < 20 µM
disaggregation effect for tau protein aggregates [1]: remarkably excellent disaggregation effect
EC50 (Aβ1-42): < 20 µM
disaggregation effect for amyloid-beta protein aggregates (Aβ1-42): remarkably excellent disaggregation effect
amyloid-beta oligomer reduction effect [2]: reduction effect

Cc1ncsc1C1=C(c2ccc(N3CCN(C)CC3)cc2)C(=O)c2cc(N3CCN(C)CC3)ccc21 [Compound 75, 6-(4-methylpiperazin-1-yl)-2-(4-(4-methylpiperazin-1-yl)phenyl)-3-(4-methylthiazol-5-yl)-1H-inden-1-one]
EC50 [1]: < 20 µM
EC50 (Aβ1-42): < 20 µM
amyloid-beta oligomer reduction effect [2]: reduction effect

CN1CCN(c2ccc(C3=C(c4ccccc4)c4ccccc4C3=O)cc2)CC1 [Compound 90, 2-(4-(4-methylpiperazin-1-yl)phenyl)-3-phenyl-1H-inden-1-one]
EC50 [1]: < 20 µM
disaggregation effect for tau protein aggregates [1]: remarkably excellent disaggregation effect
EC50 (Aβ1-42): < 20 µM
disaggregation effect for amyloid-beta protein aggregates (Aβ1-42): remarkably excellent disaggregation effect
amyloid-beta oligomer reduction effect [2]: reduction effect
